From patent US20250009737A1, “COMPOUNDS AND METHODS FOR THE TARGETED DEGRADATION OF ANDROGEN RECEPTOR” (Arvinas Operations, Inc., priority 2023, published 2025) come the findings set out here.

Like-named read-outs stand apart in the source and are kept apart here. Some results are limits rather than exact numbers.

Data set [1] can be described thus: Metabolite profiling / stability in human plasma. It is filed as in vitro ADME. As for the experimental part: Metabolite profiling was conducted in incubations of Compound A (2 and 10 μM) with HLM (up to 60 min), human hepatocyte suspension (up to 240 min) and human plasma (up to 360 min). In addition, Compound A (2 μM) was incubated with recombinant human CYP enzymes CYP1A2, CYP2A6, CYP2B6, CYP2C8, CYP2C9, CYP2C19, CYP2D6, CYP2E1, CYP3A4 and CYP3A5.

For another data set, the system named is human hepatocytes. As to the kind of experiment: Hepatocyte viability, upfront MTT assay. The data set is classed as cell-based. The settings on record: 0.03-30 μM, after 2 days treatment. Here is the method:
Positive control inducers behaved as expected (Table 1). Maximal 2.5-8.8-fold induction (4-6% of positive control response) in CYP3A4 mRNA were found at 0.1-0.3 μM in all three donors, and 3.1-fold for CYP2C8 mRNA in one of three lots (donor 3 only) at 0.1 μM (28% of positive control response). The induction response was attenuated at higher concentrations (Table 1).
A general note: Tetrazolium assays rely on reduction of a dye to a coloured formazan, in cell work by metabolically active cells.

A further data set relates to CYP2C8 mRNA. The data set is described as follows: CYP2C8 mRNA induction in cryopreserved human hepatocytes. It is filed as in vitro ADME. The settings on record: for CYP2C8 mRNA Fold induction: human hepatocytes.
Another data set deals with T1, CYP2C9 (Homo sapiens, UniProt P11712).
T1 construct: evaluated in pooled human liver microsomes (HLM); from tissue; host or cells: pooled human liver microsomes
As to the kind of experiment: Direct and time-dependent CYP2C9 inhibition in pooled human liver microsomes. It is filed as in vitro ADME. The settings on record: pooled HLM, substrate Diclofenac 5 μM. Here is the method: (§1) The induction potential of Compound A on CYP enzymes was assessed in cryopreserved human hepatocytes from three donors. Following treatment for with Compound A at concentrations of 0.03-30 μM for 48 hours, mRNA levels for CYP1A2, 2B6, 2C8, 2C9, 2C19, and 3A4 were determined by semiquantitative real-time polymerase chain reaction (PCR). Test article concentrations during 24-hour incubation were determined. The potential of Compound A to cause direct and time-dependent inhibition (TDI) of the activities of CYP1A2, 2B6, 2C8, 2C9, 2C19, 2D6, and 3A4 was evaluated in pooled human liver microsomes (HLM) at 0.2-15 μM. Probe substrate concentrations around Km were used for direction inhibition and initial TDI assays. For TDI assay, Compound A was pre-incubated with pooled HLM with and without NADPH for 30 minutes prior to incubation with a single concentration of probe substrate.

The target in another data set is T2, MATE1 (Homo sapiens, UniProt Q96FL8).
T2 construct: expressed in transfected cells; host or cells: MDCKII or HEK293
T2 sequence (Q96FL8 1-570): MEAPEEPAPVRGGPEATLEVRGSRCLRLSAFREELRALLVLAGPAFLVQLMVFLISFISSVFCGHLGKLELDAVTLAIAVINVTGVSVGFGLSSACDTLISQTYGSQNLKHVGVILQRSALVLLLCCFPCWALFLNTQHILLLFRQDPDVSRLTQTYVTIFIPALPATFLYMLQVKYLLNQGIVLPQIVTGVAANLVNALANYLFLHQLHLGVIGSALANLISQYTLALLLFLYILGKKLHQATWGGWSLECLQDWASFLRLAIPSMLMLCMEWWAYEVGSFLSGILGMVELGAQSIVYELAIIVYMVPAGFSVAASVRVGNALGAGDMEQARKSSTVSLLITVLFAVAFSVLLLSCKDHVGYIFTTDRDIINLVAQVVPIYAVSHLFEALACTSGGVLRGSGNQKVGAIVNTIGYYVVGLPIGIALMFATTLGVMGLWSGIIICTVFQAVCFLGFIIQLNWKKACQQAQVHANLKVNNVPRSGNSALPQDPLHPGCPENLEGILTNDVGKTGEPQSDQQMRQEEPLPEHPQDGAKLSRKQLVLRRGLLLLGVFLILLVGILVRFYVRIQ
The data set is described as follows: MATE1 uptake transporter inhibition in MDCKII or HEK293 cells. It is filed as in vitro ADME. As for the experimental part: (§2) In addition, the inhibition potential against efflux transporters (P-glycoprotein (Pgp) and breast cancer resistance protein (BCRP)) and uptake transporters (MATE1, MATE2-K, OATP1B1, OATP1B3, OAT1, OAT3, and OCT2) was assessed using single transporter over-expressed cell monolayers (MDCK II or HEK293) or inside-out vesicles.
(§3) The potential of Compound A to inhibit Pgp or BCRP was tested for bidirectional transport of the probe substrates in Pgp or BCRP-expressed MDCKII and control monolayers at Compound A concentrations of 0.07-5 μM. Pgp and BCR inhibition were tested in inside-out membrane vesicles prepared from HEK293 overexpressing human Pgp and BCR at concentrations of 0.01-9 μM Compound A in the presence of 4 mM MgATP or MgAMP.

In the next data set the target is T3, CYP2B6 (Homo sapiens, UniProt P20813).
T3 construct: evaluated in pooled human liver microsomes (HLM); from tissue; host or cells: pooled human liver microsomes
As to the kind of experiment: Direct and time-dependent CYP2B6 inhibition in pooled human liver microsomes. It is filed as in vitro ADME. The settings on record: pooled HLM, substrate Bupropion 50 μM. Here is the method:
as §1
Background: Liver microsomes are a subcellular fraction often used to study metabolism.

The next data set addresses T4, OCT2 (Homo sapiens, UniProt O15244).
T4 construct: expressed in transfected cells; host or cells: MDCKII or HEK293
The data set is described as follows: OCT2 uptake transporter inhibition in MDCKII or HEK293 cells. It is filed as in vitro ADME. The following applies: substrate Metformin (10 μM). Here is the method: as §2, §3

[2] abbreviates: read-out: IC50, 30 min Pre-incubation.
[3] abbreviates: read-out: IC50, No Pre-incubation.

T3 sequence (P20813 whole entry): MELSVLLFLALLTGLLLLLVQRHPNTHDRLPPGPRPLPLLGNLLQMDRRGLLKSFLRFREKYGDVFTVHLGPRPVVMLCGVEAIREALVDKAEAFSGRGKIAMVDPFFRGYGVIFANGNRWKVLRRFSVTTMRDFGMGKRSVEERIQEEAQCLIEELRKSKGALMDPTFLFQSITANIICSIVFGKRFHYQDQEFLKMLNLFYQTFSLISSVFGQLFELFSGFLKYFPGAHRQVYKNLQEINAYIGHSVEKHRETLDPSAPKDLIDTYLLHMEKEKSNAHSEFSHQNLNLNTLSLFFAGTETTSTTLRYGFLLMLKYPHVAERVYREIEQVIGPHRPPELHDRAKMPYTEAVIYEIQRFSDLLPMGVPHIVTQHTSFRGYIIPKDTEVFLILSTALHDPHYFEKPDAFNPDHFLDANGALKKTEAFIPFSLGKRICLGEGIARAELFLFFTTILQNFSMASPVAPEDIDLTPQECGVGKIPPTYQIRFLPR
T1 sequence (P11712 whole entry): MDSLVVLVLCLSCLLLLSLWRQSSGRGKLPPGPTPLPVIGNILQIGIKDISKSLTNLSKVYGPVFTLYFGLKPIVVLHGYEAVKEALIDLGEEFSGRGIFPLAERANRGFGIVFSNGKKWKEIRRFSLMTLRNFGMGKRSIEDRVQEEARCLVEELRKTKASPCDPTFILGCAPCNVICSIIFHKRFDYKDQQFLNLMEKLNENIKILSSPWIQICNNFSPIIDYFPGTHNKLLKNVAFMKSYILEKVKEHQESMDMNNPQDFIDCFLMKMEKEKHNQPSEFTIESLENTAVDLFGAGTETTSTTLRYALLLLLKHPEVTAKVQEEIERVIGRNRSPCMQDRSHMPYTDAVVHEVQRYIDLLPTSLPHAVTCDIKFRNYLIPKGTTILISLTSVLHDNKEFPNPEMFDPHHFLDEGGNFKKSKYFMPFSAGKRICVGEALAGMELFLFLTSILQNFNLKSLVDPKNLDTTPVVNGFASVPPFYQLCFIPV
T4 sequence (O15244 whole entry): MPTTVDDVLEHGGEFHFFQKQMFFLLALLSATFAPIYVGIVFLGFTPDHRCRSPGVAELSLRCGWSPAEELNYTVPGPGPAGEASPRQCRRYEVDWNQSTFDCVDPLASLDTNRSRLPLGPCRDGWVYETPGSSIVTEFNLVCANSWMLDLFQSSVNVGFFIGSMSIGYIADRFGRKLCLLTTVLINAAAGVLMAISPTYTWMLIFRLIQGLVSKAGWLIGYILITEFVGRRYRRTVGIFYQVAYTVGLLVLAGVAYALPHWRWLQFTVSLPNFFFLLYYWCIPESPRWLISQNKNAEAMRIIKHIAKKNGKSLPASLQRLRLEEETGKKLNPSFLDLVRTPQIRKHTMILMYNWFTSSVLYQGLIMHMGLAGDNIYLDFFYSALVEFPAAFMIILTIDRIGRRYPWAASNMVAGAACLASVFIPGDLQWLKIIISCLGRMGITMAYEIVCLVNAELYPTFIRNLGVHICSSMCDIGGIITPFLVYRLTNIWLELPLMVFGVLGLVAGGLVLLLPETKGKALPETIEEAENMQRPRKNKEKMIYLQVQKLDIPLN

As to `COc1cc(O[C@H]2C(C)(C)[C@H](NC(=O)c3ccc(N4CCC(CN5CCN(c6ccc(C(=O)N[C@H]7CCC(=O)NC7=O)c(F)c6)CC5)CC4)cc3)C2(C)C)ccc1C#N` [Compound A, 4-(4-((1-(4-(((1R,3R)-3-(4-cyano-3-methoxyphenoxy)-2,2,4,4-tetramethylcyclobutyl)carbamoyl)phenyl)piperidin-4-yl)methyl)piperazin-1-yl)-N—((S)-2,6-dioxopiperidin-3-yl)-2-fluorobenzamide], the “% Parent at 0 Min, HP at 360 min” value in data set [1] is 77.0%. For the same molecule, the Hepatocyte viability result in the data set on human hepatocytes is recorded as “no significant decrease”. Besides, the “CYP2C8 mRNA Fold induction” value in the data set with CYP2C8 mRNA (Donor 1, 0.03-30 μM, 48 hours) is given as less than 2 Fold; with CYP2C8 mRNA (Donor 2, 0.03-30 μM, 48 hours) it was less than 2 Fold; in the data set on CYP2C8 mRNA (Donor 3, maximal, at 0.1 μM) it was 3.1 Fold. The “CYP2C8 mRNA induction, % PC” value in the data set on CYP2C8 mRNA (Donor 3, % of positive control response, at 0.1 μM) turned out to be 28 % PC. For the same molecule, the IC50 (as a rule, the concentration that inhibits the measured activity by half) is greater than 15 µM at CYP2C9 (setting [2]); greater than 15 µM on CYP2C9 (setting [3]); 3.05 µM against MATE1 (MATE1, substrate Metformin (10 μM)); greater than 15 µM at CYP2B6 (setting [2]); greater than 15 µM on CYP2B6 (setting [3]); greater than 3.75 µM against OCT2. The EC50 (as a rule, the midpoint of the concentration-response curve) on MATE1 (MATE1 inhibition) is 3.05 µM. Besides, 3.75 µM produced 52% inhibition against MATE1 (MDCKII or HEK293 cells stably expressing MATE1, probe Metformin (10 μM), at a concentration of 3.75 μM).
